# Target: S. aureus GyrB ATPase (Staphylococcus aureus, UniProt P0A0K8)
# Experiment: S. aureus GyrB ATPase inhibition (ammonium molybdate/malachite green phosphate detection)
# Assay type: biochemical
# Conditions: compound concentration of 1 μM (unless otherwise noted)
# Procedure: E. coli GyrB ATPase Inhibition Activity: Compounds can be tested for inhibition of E. coli GyrB ATPase activity using an ammonium molybdate/malachite green-based phosphate detection assay (Lanzetta, P. A., L. J. Alvarez, P. S. Reinach, and O. A. Candia, 1979, 100: 95-97). Assays can be performed in multiwell plates in 30 μl reactions containing: 50 mM Hepes buffer pH 7.5, 75 mM ammonium acetate, 8.0 mM magnesium chloride, 0.5 mM ethylenediaminetetraacetic acid, 5% glycerol, 1 mM 1,4-Dithio-DL-threitol, 200 nM bovine serum albumin, 1.6 μg/ml sheared salmon sperm DNA, 400 pM E. coli GyrA, 400 pM E. coli GyrB, 250 μM ATP, and compound in dimethylsulfoxide. Reactions can be quenched with 30 μl of ammonium molybdate/malachite green detection reagent containing 1.2 mM malachite green hydrochloride, 8.5 mM ammonium molybdate tetrahydrate, and 1 M hydrochloric acid. Plates can be read in an absorbance plate reader at 650 nm and percent inhibition values are calculated using dimethylsulfoxide (2%)-containing reactions as 0% inhibition and EDTA-containing (2.4 μM) reactions as 100% inhibition controls. An IC50 measurement of compound potency for each compound can be determined from reactions performed in the presence of 10 different compound concentrations. E. coli Topoisomerase IV ATPase Inhibition Activity: Compounds can be tested for inhibition of E. coli topoisomerase IV ATPase activity as described above for E. coli GyrB except the 30 μl reactions contained the following: 20 mM TRIS buffer pH 8, 50 mM ammonium acetate, 8 mM magnesium chloride, 5% glycerol, 5 mM 1,4-Dithio-DL-threitol, 0.005% Brij-35, 5 μg/ml sheared salmon sperm DNA, 500 pM E. coli ParC, 500 pM E. coli ParE, 160 μM ATP, and compound in dimethylsulfoxide. An IC50 measurement of compound potency for each compound can be determined from reactions performed in the presence of 10 different compound concentrations. S. aureus GyrB ATPase Inhibition Activity: Compounds may be tested for inhibition of S. aureus GyrB ATPase activity using an ammonium molybdate/malachite green-based phosphate detection assay (Lanzetta, P. A., L. J. Alvarez, P. S. Reinach, and O. A. Candia, 1979, 100: 95-97). Assays can be performed in multiwell plates in 30 μl reactions containing: 50 mM Hepes buffer pH 7.5, 75 mM ammonium acetate, 8.0 mM magnesium chloride, 0.5 mM ethylenediaminetetraacetic acid, 5% glycerol, 1.0 mM 1,4-Dithio-DL-threitol, 200 nM bovine serum albumin, 1.0 μg/ml sheared salmon sperm DNA, 250 pM E. coli GyrA, 250 pM S. aureus GyrB, 250 μM ATP, and compound in dimethylsulfoxide. Reactions can be quenched with 30 μl of ammonium molybdate/malachite green detection reagent containing 1.2 mM malachite green hydrochloride, 8.5 mM ammonium molybdate tetrahydrate, and 1 M hydrochloric acid. Plates can be read in an absorbance plate reader at 650 nm and percent inhibition values can be calculated using dimethylsulfoxide (2%)-containing reactions as 0% inhibition and EDTA-containing (2.4 μM) reactions as 100% inhibition controls. An IC50 measurement of compound potency for each compound can be determined from reactions performed in the presence of 10 different compound concentrations.
# Compounds of the invention were tested in an assay substantially similar to the assay described above for measuring the inhibition of S. aureus GyrB ATPase. Percent inhibition of S. aureus GyrB ATPase at a compound concentration of 1 μM (unless otherwise noted) is disclosed in the following table: […]
# Chain of S. aureus GyrB ATPase (P0AES4 whole entry): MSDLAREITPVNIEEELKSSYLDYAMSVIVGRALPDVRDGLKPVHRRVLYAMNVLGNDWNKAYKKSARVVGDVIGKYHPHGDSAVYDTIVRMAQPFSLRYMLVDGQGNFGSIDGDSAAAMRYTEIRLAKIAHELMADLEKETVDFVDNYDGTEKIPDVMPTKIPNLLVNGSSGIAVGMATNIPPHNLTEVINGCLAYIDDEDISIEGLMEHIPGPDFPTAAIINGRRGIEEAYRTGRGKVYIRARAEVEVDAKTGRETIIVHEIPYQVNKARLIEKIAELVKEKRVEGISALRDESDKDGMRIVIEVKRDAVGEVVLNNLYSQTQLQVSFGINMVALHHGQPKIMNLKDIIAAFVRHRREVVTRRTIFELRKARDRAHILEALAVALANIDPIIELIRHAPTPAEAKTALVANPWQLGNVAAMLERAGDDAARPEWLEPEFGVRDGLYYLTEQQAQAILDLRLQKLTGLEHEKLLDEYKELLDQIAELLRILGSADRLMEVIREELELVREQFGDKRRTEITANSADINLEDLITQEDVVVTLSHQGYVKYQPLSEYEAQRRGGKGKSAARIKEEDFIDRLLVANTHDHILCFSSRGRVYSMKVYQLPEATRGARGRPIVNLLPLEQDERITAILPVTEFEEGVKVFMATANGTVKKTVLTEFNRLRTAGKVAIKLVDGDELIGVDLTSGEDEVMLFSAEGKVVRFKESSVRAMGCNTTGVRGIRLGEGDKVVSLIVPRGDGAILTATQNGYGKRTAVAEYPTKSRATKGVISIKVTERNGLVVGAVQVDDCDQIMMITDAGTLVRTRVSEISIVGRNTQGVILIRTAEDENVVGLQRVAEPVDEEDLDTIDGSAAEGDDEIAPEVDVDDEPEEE
# Chain of S. aureus GyrB ATPase (P0A0K8 whole entry): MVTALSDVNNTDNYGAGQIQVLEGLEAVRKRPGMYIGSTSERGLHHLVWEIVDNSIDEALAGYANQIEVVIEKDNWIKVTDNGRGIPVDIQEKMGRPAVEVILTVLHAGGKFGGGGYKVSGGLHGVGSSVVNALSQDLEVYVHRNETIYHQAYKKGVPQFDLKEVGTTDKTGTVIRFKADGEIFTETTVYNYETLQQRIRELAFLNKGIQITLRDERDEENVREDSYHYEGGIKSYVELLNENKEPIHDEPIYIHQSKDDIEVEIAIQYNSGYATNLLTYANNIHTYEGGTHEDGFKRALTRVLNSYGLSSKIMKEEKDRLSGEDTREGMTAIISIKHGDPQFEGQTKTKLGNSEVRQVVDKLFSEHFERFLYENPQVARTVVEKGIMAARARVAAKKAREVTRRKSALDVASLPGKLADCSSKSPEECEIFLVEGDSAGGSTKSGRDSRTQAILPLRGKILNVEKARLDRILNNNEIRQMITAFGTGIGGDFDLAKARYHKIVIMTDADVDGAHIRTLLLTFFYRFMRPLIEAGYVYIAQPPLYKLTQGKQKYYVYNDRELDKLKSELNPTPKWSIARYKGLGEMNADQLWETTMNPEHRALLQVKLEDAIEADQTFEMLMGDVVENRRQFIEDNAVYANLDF
row,Structure (SMILES),inhibition at 1 µM [%]
1,"C=CCO[C@H]1CN(c2nc(-c3ncnn3C)c(C(=O)O)s2)CC[C@H]1NC(=O)c1[nH]c(C)c(Cl)c1Cl [Example 1, 2-[(3S,4R)-4-{[(3,4-dichloro-5-methyl-1H-pyrrol-2-yl)carbonyl]amino}-3-(prop-2-en-1-yloxy)piperidin-1-yl]-4-(1-methyl-1H-1,2,4-triazol-5-yl)-1,3-thiazole-5-carboxylic acid]",99
2,C=CCO[C@H]1CN(c2nc(-c3nccn3CCOC)c(C(=O)O)s2)CC[C@H]1NC(=O)c1[nH]c(C)c(Cl)c1Cl [Example 2],103
3,C=CCO[C@H]1CN(c2nc(-c3cnccn3)c(C(=O)O)s2)CC[C@H]1NC(=O)c1[nH]c(C)c(Cl)c1Cl [Example 4],97
4,C=CCO[C@H]1CN(c2nc(-c3ncnn3C)c(C(=O)O)s2)CC[C@H]1NC(=O)c1[nH]c(C)c(Cl)c1C#N [Example 5],5
5,C=CCO[C@H]1CN(c2nc(-c3ncccc3F)c(C(=O)O)s2)CC[C@H]1NC(=O)c1[nH]c(C)c(Cl)c1C#N [Example 6],99
6,CCO[C@H]1CN(c2nc(-c3ncnn3C)c(C(=O)O)s2)CC[C@H]1NC(=O)c1[nH]c(C)c(Cl)c1Cl [Example 8],100
7,CCO[C@H]1CN(c2nc(-c3nccn3CCOC)c(C(=O)O)s2)CC[C@H]1NC(=O)c1[nH]c(C)c(Cl)c1Cl [Example 9],98
8,CCO[C@H]1CN(c2nc(-c3ncccc3F)c(C(=O)O)s2)CC[C@H]1NC(=O)c1[nH]c(C)c(Cl)c1Cl [Example 10],90
9,CCO[C@H]1CN(c2nc(-c3cnccn3)c(C(=O)O)s2)CC[C@H]1NC(=O)c1[nH]c(C)c(Cl)c1Cl [Example 11],101
10,CCO[C@H]1CN(c2nc(-c3ncnn3C)c(C(=O)O)s2)CC[C@H]1NC(=O)c1[nH]c(C)c(Cl)c1C#N [Example 12],106
11,CCO[C@H]1CN(c2nc(-c3ncnn3CCOC)c(C(=O)O)s2)CC[C@H]1NC(=O)c1[nH]c(C)c(Cl)c1C#N [Example 13],99
12,CCO[C@H]1CN(c2nc(-c3ncccc3F)c(C(=O)O)s2)CC[C@H]1NC(=O)c1[nH]c(C)c(Cl)c1C#N [Example 14],91
13,CCO[C@H]1CN(c2nc(-c3cnccn3)c(C(=O)O)s2)CC[C@H]1NC(=O)c1[nH]c(C)c(Cl)c1C#N [Example 15],98
14,CCO[C@H]1CN(c2nc(-c3ncnn3C)c(C(=O)O)s2)CC[C@H]1NC(=O)c1cc(Cl)c(C)[nH]1 [Example 16],103
15,CCO[C@H]1CN(c2nc(-c3ncccc3F)c(C(=O)O)s2)CC[C@H]1NC(=O)c1cc(Cl)c(C)[nH]1 [Example 17],106
16,CCO[C@H]1CN(c2nc(-c3cnccn3)c(C(=O)O)s2)CC[C@H]1NC(=O)c1cc(Cl)c(C)[nH]1 [Example 18],108
17,Cc1[nH]c(C(=O)N[C@@H]2CCN(c3nc(-c4ncnn4C)c(C(=O)O)s3)C[C@@H]2C)cc1Cl [Example 19],112
18,Cc1[nH]c(C(=O)N[C@@H]2CCN(c3nc(-c4ncccc4F)c(C(=O)O)s3)C[C@@H]2C)cc1Cl [Example 20],118
19,Cc1[nH]c(C(=O)N[C@@H]2CCN(c3nc(-c4cnccn4)c(C(=O)O)s3)C[C@@H]2C)cc1Cl [Example 21],118
20,Cc1[nH]c(C(=O)N[C@@H]2CCN(c3nc(-c4ncnn4C)c(C(=O)O)s3)C[C@@H]2C)c(Cl)c1Cl [Example 22],112

row,Structure (SMILES),inhibition at 1 µM [%]
1,Cc1[nH]c(C(=O)N[C@@H]2CCN(c3nc(-c4ncccc4F)c(C(=O)O)s3)C[C@@H]2C)c(Cl)c1Cl [Example 24],120
2,Cc1[nH]c(C(=O)N[C@@H]2CCN(c3nc(-c4cnccn4)c(C(=O)O)s3)C[C@@H]2C)c(Cl)c1Cl [Example 25],119
3,Cc1[nH]c(C(=O)N[C@@H]2CCN(c3nc(-c4ncnn4C)c(C(=O)O)s3)C[C@@H]2C)c(C#N)c1Cl [Example 26],97
4,COCCn1ccnc1-c1nc(N2CC[C@@H](NC(=O)c3[nH]c(C)c(Cl)c3C#N)[C@@H](C)C2)sc1C(=O)O [Example 27],102
5,Cc1[nH]c(C(=O)N[C@@H]2CCN(c3nc(-c4ncccc4F)c(C(=O)O)s3)C[C@@H]2C)c(C#N)c1Cl [Example 28],98
6,Cc1[nH]c(C(=O)N[C@@H]2CCN(c3nc(-c4cnccn4)c(C(=O)O)s3)C[C@@H]2C)c(C#N)c1Cl [Example 29],98
7,"CO[C@@H]1CN(c2nc(-c3cnc(N4CCN(C)CC4)cn3)c(C(=O)O)s2)CC[C@@H]1NC(=O)c1[nH]c(C)c(Cl)c1Cl [Example 61, 2-[(3R,4S)-4-{[(3,4-dichloro-5-methyl-1H-pyrrol-2-yl)carbonyl]amino}-3-methoxypiperidin-1-yl]-4-[5-(4-methylpiperazin-1-yl)pyrazin-2-yl]-1,3-thiazole-5-carboxylic acid]",105
8,"CO[C@H]1CN(c2nc(-c3cnc(OCCN4CCCC4)cn3)c(C(=O)O)s2)CC[C@H]1NC(=O)c1[nH]c(C)c(Cl)c1Cl [Example 62, 2-[(3S,4R)-4-{[(3,4-dichloro-5-methyl-1H-pyrrol-2-yl)carbonyl]amino}-3-methoxypiperidin-1-yl]-4-{5-[2-(pyrrolidin-1-yl)ethoxy]pyrazin-2-yl}-1,3-thiazole-5-carboxylic acid]",98
9,CO[C@H]1CN(c2nc(-c3cnc(OCCN(C)C)cn3)c(C(=O)O)s2)CC[C@H]1NC(=O)c1[nH]c(C)c(Cl)c1Cl [Example 63],104
10,CO[C@H]1CN(c2nc(-c3cnc(OCCN4CCN(C)CC4)cn3)c(C(=O)O)s2)CC[C@H]1NC(=O)c1[nH]c(C)c(Cl)c1Cl [Example 64],104
11,CO[C@H]1CN(c2nc(-c3cnc(OCCC4CCN(C)CC4)cn3)c(C(=O)O)s2)CC[C@H]1NC(=O)c1[nH]c(C)c(Cl)c1Cl [Example 65],107
12,"CCO[C@H]1CN(c2nc(-c3cnc(N4CCCCC4)cn3)c(C(=O)O)s2)CC[C@H]1NC(=O)c1[nH]c(C)c(Cl)c1Cl [Example 86, 2-[(3S,4R)-4-{[(3,4-dichloro-5-methyl-1H-pyrrol-2-yl)carbonyl]amino}-3-ethoxypiperidin-1-yl]-4-[5-(piperidin-1-yl)pyrazin-2-yl]-1,3-thiazole-5-carboxylic acid]",105
13,CCO[C@H]1CN(c2nc(-c3cnc(N4CCOCC4)cn3)c(C(=O)O)s2)CC[C@H]1NC(=O)c1[nH]c(C)c(Cl)c1Cl [Example 87],109
14,CCO[C@H]1CN(c2nc(-c3cnc(N4CCN(C)CC4)cn3)c(C(=O)O)s2)CC[C@H]1NC(=O)c1[nH]c(C)c(Cl)c1Cl [Example 88],107
15,CCO[C@H]1CN(c2nc(-c3cnc(N4CCNCC4)cn3)c(C(=O)O)s2)CC[C@H]1NC(=O)c1[nH]c(C)c(Cl)c1Cl [Example 89],110
16,CCO[C@H]1CN(c2nc(-c3cnc(NCCOC)cn3)c(C(=O)O)s2)CC[C@H]1NC(=O)c1[nH]c(C)c(Cl)c1Cl [Example 90],103
17,CCO[C@H]1CN(c2nc(-c3cnc(NCCN4CCOCC4)cn3)c(C(=O)O)s2)CC[C@H]1NC(=O)c1[nH]c(C)c(Cl)c1Cl [Example 91],105
18,CCO[C@H]1CN(c2nc(-c3cnc(NC(COC)COC)cn3)c(C(=O)O)s2)CC[C@H]1NC(=O)c1[nH]c(C)c(Cl)c1Cl [Example 92],102
19,CCO[C@H]1CN(c2nc(-c3cnc(NCCN4CCNC4=O)cn3)c(C(=O)O)s2)CC[C@H]1NC(=O)c1[nH]c(C)c(Cl)c1Cl [Example 93],94

# Reference: patent US8071605B2, “Piperidine compounds for use in the treatment of bacterial infections” (AstraZeneca AB, priority 2008, dated 2011)
